Reference: US9872493B2, “Method for promoting plant growth” (SUMITOMO CHEMICAL COMPANY, LIMITED, priority 2012, dated 2018)
Read-outs that look alike come from different tables or passages of the source.

What was measured:
[1] = tested on: Rice (Variety: Nipponbare); assay: Test for evaluating promotion of root growth by hydroponics of rice (Test Examples 1-3); assay type: in vivo
Description: Rice (Variety: Nipponbare)
(§1) A DMSO solution, which contained one of the compounds 14, 18, 21, 23, 26, 28, 29, 30, 35, 36, 37, 39 and 40 of the present invention at a concentration of 100,000 ppm, was added to Hoagland hydroponic solution (Hoagland and Arnon, California Agricultural Experiment Station 1950 Circular 347 pp. 34) of ¼-fold concentration at a volume ratio of 1/10,000. In this manner, hydroponic solutions containing one of the compounds 14, 18, 21, 23, 26, 28, 29, 30, 35, 36, 37, 39 and 40 of the present invention at 10 ppm were prepared respectively. As an untreated control plot, a hydroponic solution obtained by adding DMSO to Hoagland hydroponic solution of ¼-fold concentration at a volume ratio of 1/10,000 was used.
(§2) Rice seeds were soaked in a 1% aqueous sodium hypochlorite solution for 10 minutes, then soaked in a 70% ethanol solution for surface sterilization, and then washed with distilled water. The sterilized seeds were soaked in a hydroponic solution containing the test compound described above at 10 ppm and incubated in a dark place for 3 days at 28° C. to perform treatment for hastening germination.
(§3) Thereafter, 30 ml of hydroponic solution containing the test compound at 10 ppm was dispensed in a plastic tube (diameter of 20 mm×height of 113 mm) of which the side was covered with cardboard to block light. A float prepared using a styrene board and vinyl mesh was floated, and the rice seeds that had undergone the treatment for hastening germination were placed on the float on the surface of the hydroponic solution. The seeds were cultivated for 3 days at 26° C., an illuminance of 4,000 lux of the top surface of the tube, a humidity of 50%, and a day length of 16 hours.
The nursery plants of rice obtained after cultivating were measured in terms of the length of seminal root by using WinRHIZO system (manufactured by Regent Instruments Inc). For each test plot, an average of the measured values of the seminal root of 4 or 5 individuals were determined.
as §1, with “compounds 7, 8, 9, 10, 12, 17, 20,” for “compounds 14, 18,”, “21, 25, 27,” for “21, 23, 26,”, “30, 34,” for “30,”, “37, 38,” for “37,”, “of 10,000” for “of 100,000”, “at 1” for “at 10”
as §2, with “at 1” for “at 10”
as §3, with “1” for “10”
The nursery plants of rice obtained after cultivation were measured in terms of the length of seminal root by using WinRHIZO system (manufactured by Regent Instruments Inc). […]

[2] = tested on: Nicotiana benthamiana; assay: Test for evaluating growth promotion under low-temperature stress by hydroponics of Nicotiana benthamiana (Test Examples 4-6); assay type: in vivo; settings: read-out: value of a relative leaf area (equation (1)); for relative green leaf area after low-temperature stress at 0.1 ppm: compound at 0.1 ppm; for relative green leaf area after low-temperature stress at 10 ppm: compound at 10 ppm
Description: A DMSO solution, which contained one of the compounds 5, 14, 22, 23, 24, 25, 26, 28, 30, 31, 32, 33, 34, 35, 38, 39 and 40 of the present invention at a concentration of 10,000 ppm, was prepared. The DMSO solution of the compound of the present invention was added at a volume ratio of 1/1,000 to the Murashige•Scoog medium of a ½-fold concentration (a medium containing 2.3 g of mixed salts (manufactured by Wako Pure Chemical Industries, Ltd.), 200 mg of Myo-inositol (manufactured by Sigma-Aldrich Co. LLC.), 2 mg of nicotinic acid (manufactured by Wako Pure Chemical Industries, Ltd.), 2 mg of pyridoxine hydrochloride (manufactured by Wako Pure Chemical Industries, Ltd.), 20 mg of thiamine hydrochloride (manufactured by Wako Pure Chemical Industries, Ltd.), 20 g of sucrose (manufactured by Wako Pure Chemical Industries, Ltd.), and 1 g of MES (manufactured by DOJINDO LABORATORIES) per 1 L of water and having pH adjusted to 5.8), thereby preparing a medium containing the compound of the present invention at a concentration of 10 ppm.
Seeds of Nicotiana benthamiana were seeded in the 5 μL of the medium and cultured overnight at 22° C. Thereafter, 45 μL of the medium containing the compound of the present invention at a concentration of 10 ppm was added thereto, and the seeds are cultivated for 7 days at 22° C., an illuminance of 4,000 lux, and a day length of 16 hours, thereby the nursery plants raised from the Nicotiana benthamiana were treated with the compound.
Moreover, instead of the above medium a test plot, which was obtained by performing the same treatment by using a medium prepared by adding DMSO to the Murashige•Scoog medium of ½-fold concentration at a volume ratio of 1/1,000, was used as a control plot not treated with the compound.
The nursery plants of the Nicotiana benthamiana treated with the compound were subjected to low-temperature treatment by being cultivated for 7 days at 1.5±1.0° C., an illuminance of 2,000 lux, and a day length of 16 hours.
The nursery plants of the Nicotiana benthamiana having undergone the low-temperature stress treatment were cultivated for 3 days at 22° C., an illuminance of 4,000 lux, and a day length of 16 hours. Thereafter, the area of green leaf was quantified by Scanalyzer HTS (manufactured by LemnaTec GmbH). Moreover, the value of the control plot not treated with the compound that had not yet been subjected to the low-temperature stress treatment was measured in the same manner. A value of a relative leaf area was calculated based on the following equation (1), and if the value of a relative leaf area was 5 or greater, the compound was evaluated to have a mitigating effect. As a result of the evaluation, it was confirmed that when the plant was treated with one of the compounds 5, 14, 22, 23, 24, 25, 26, 28, 30, 31, 32, 33, 34, 35, 38, 39 and 40 of the present invention at 10 ppm, the value of a relative leaf area was 5 or greater, compared to the area of green leaf of the control plot not treated with compound. Accordingly, it was confirmed that the treatment using the compound of the present invention brings about a growth promotion effect. Relative leaf area=100*(a green area of a plot treated with the compound of the present invention−a green area of a control plot not treated with the compound of the present invention)/(a green area of a control plot not treated with the compound of the present invention that has not yet been subjected to low-temperature stress treatment−a green area of a control plot not treated with the compound of the present invention) Equation (1): […]
A DMSO solution, which contained one of the compounds 6, 7, 8, 11, 12, 15, 19, 23, 24, 25, 28, 30, 31, 33, 34, 36, 37, 38 and 39 of the present invention at a concentration of 1,000 ppm, was prepared. […]

[3] = 7 days at 1.5±1.0° C. low-temperature stress, then 3 days at 22° C., green leaf area vs untreated control
[4] = compound at 1 ppm, 7 days at 1.5±1.0° C. low-temperature stress, then 3 days at 22° C., green leaf area vs untreated control

SMILES	relative green leaf area after low-temperature stress at 0.1 ppm [2, 3] [%]	relative green leaf area after low-temperature stress at 1 ppm [2, 4] [%]	length of seminal root compared with the untreated control plot (in words) ([1]; 1 ppm)	also measured
O=C(O)c1cccc2sc(C(F)(F)F)cc12 [Compound 1, 2-trifluoromethylbenzo[b]thiophene-4-carboxylic acid]	–	–	–	length of seminal root compared with the untreated control plot (in words) ([1]; 0.1 ppm): obviously longer
COC(=O)c1cccc2sc(C(F)(F)F)cc12 [Compound 2, methyl 2-trifluoromethylbenzo[b]thiophene-4-carboxylate]	≥ 5	–	–	–
NC(=O)c1cccc2sc(C(F)(F)F)cc12 [Compound 3, 2-trifluoromethylbenzo[b]thiophene-4-carboxamide]	≥ 5	–	–	length of seminal root compared with the untreated control plot (in words) ([1]; 0.1 ppm): obviously longer
COC(=O)c1ccc2sccc2c1 [Compound 5, methyl benzo[b]thiophene-5-carboxylate]	–	–	–	relative green leaf area after low-temperature stress at 10 ppm [2, 3]: ≥ 5%
O=C(O)c1cccc2ccsc12 [Compound 6, benzo[b]thiophene-7-carboxylic acid]	–	≥ 5	–	length of seminal root compared with the untreated control plot (in words) ([1]; 0.1 ppm): obviously longer
NC(=O)c1cccc2ccsc12 [Compound 7, benzo[b]thiophene-7-carboxamide]	–	≥ 5	obviously longer	–
COC(=O)c1cccc2ccsc12 [Compound 8, methyl benzo[b]thiophene-7-carboxylate]	–	≥ 5	obviously longer	–
O=C(O)c1cccc2cc(C(F)(F)F)sc12 [Compound 9, 2-trifluoromethylbenzo[b]thiophene-7-carboxylic acid]	≥ 5	–	obviously longer	–
COC(=O)c1cccc2cc(C(F)(F)F)sc12 [Compound 10, methyl 2-trifluoromethylbenzo[b]thiophene-7-carboxylate]	≥ 5	–	obviously longer	–
NC(=O)c1cccc2cc(C(F)(F)F)sc12 [Compound 11, 2-trifluoromethylbenzo[b]thiophene-7-carboxamide]	–	–	–	relative green leaf area after low-temperature stress at 1 ppm [2]: ≥ 5%
COC(=O)c1csc2ccccc12 [Compound 12, methyl benzo[b]thiophene-3-carboxylate]	–	≥ 5	obviously longer	–
O=C(O)c1csc2ccc(C(F)(F)F)cc12 [Compound 13, 5-trifluoromethylbenzo[b]thiophene-3-carboxylic acid]	≥ 5	–	–	length of seminal root compared with the untreated control plot (in words) ([1]; 0.1 ppm): obviously longer
COC(=O)c1csc2ccc(C(F)(F)F)cc12 [Compound 14, methyl 5-trifluoromethylbenzo[b]thiophene-3-carboxylate]	–	–	–	relative green leaf area after low-temperature stress at 10 ppm [2, 3]: ≥ 5%; length of seminal root compared with the untreated control plot (in words) ([1]; 10 ppm): obviously longer
O=C(O)c1c(C(F)(F)F)sc2ccccc12 [Compound 15, 2-trifluoromethylbenzo[b]thiophene-3-carboxylic acid]	–	≥ 5	–	length of seminal root compared with the untreated control plot (in words) ([1]; 0.1 ppm): obviously longer
NC(=O)c1c(C(F)(F)F)sc2ccccc12 [Compound 17, 2-trifluoromethylbenzo[b]thiophene-3-carboxamide]	–	–	obviously longer	–
COC(=O)c1c(C(F)(F)F)sc2c(C(=O)OC)cccc12 [Compound 18, dimethyl 2-trifluoromethylbenzo[b]thiophene-3,7-dicarboxylate]	–	–	–	length of seminal root compared with the untreated control plot (in words) ([1]; 10 ppm): obviously longer
CCOC(=O)c1c(C(F)(F)F)sc2ccccc12 [Compound 22]	≥ 5	–	–	relative green leaf area after low-temperature stress at 10 ppm [2, 3]: ≥ 5%
CNC(=O)c1c(C(F)(F)F)sc2ccccc12 [Compound 24]	–	≥ 5	–	relative green leaf area after low-temperature stress at 10 ppm [2, 3]: ≥ 5%
O=C(O)c1csc2cc(C(F)(F)F)ccc12 [Compound 27]	–	–	obviously longer	length of seminal root compared with the untreated control plot (in words) ([1]; 0.1 ppm): obviously longer
O=C(Nc1ccccc1)c1csc2cc(C(F)(F)F)ccc12 [Compound 32]	≥ 5	–	–	relative green leaf area after low-temperature stress at 10 ppm [2, 3]: ≥ 5%
O=C(NCc1ccccc1)c1csc2cc(C(F)(F)F)ccc12 [Compound 33]	≥ 5	≥ 5	–	relative green leaf area after low-temperature stress at 10 ppm [2, 3]: ≥ 5%
